The values that follow come from patent US20140315883A1, “6H-IMIDAZO[1,5-a]PYRROLO[2,3-e]PYRAZINE COMPOUNDS” (ABBVIE INC., priority 2013, published 2014).

In one series the target is T1, Syk (Homo sapiens, UniProt P43405).
T1 construct: Purified Syk catalytic domain (aa 356-635 with a C-terminal His-tag purified in-house); His-tag (C); made in house
Nature of the series: In vitro Syk kinase activity measured by trFRET. The format is biochemical. The note with it: Syk catalytic domain, 0.001 mM ATP. The method, then: In Vitro Syk Kinase Activity Measured by Time-Resolved Fluorescence Resonance Energy Transfer (trFRET)
After about 60 min incubation at rt, the reaction was quenched by addition of EDTA (final concentration: 100 mM) and developed by addition of revelation reagents (final approximate concentrations: 30 mM HEPES pH 7.0, 0.06% BSA, 0.006% Tween-20, 0.24 M KF, 80 ng/mL PT66K (europium labeled anti-phosphotyrosine antibody cat #61T66KLB Cisbio, Bedford, Mass.) and 0.6 μg/mL SAXL (Phycolink streptavidin-allophycocyanin acceptor, cat #PJ25S, Prozyme, San Leandro, Calif.). The developed reaction was incubated in the dark either at about 4° C. for about 14 h or for about 60 min at rt, then read via a time-resolved fluorescence detector (Rubystar, BMG) using a 337 nm laser for excitation and monitoring emission wavelengths at 665 nm. Within the linear range of the assay, the observed signal at 665 nm was directly related to phosphorylated product and can be used to calculate the IC50 values.

For series [1] the following is noted: patients in clinical trials; cited from earlier work.

The IC50 is the concentration that gives 50% inhibition. Low readings indicate greater potency, high ones weaker potency. In turn, `CC(=O)N1C[C@H](O)C[C@@H]1c1nc(-c2ccc3c(c2)NCCC3)c2cnc3[nH]ccc3n12` [F.1.30, 1-((2R,4R)-4-hydroxy-2-(3-(1,2,3,4-tetrahydroquinolin-7-yl)-6H-imidazo[1,5-a]pyrrolo[2,3-e]pyrazin-1-yl)pyrrolidin-1-yl)ethanone] registered an IC50 against Syk of 10 to 30 nM.
Same read-out and setting: the value for `CC(=O)N1C[C@H](O)C[C@@H]1c1nc(-c2ccc(OC3CC3)cc2)c2cnc3[nH]ccc3n12` [F.1.31] was 10 to 30 nM.
`CCN(CC)CCNC(=O)c1c(C)[nH]c(/C=C2\C(=O)Nc3ccc(F)cc32)c1C` [sunitibnib, sunitinib]: the risk for hypertension entry in series [1] was “increased risk for hypertension”.
Compound “(2R,4R)-2-(3-(chroman-6-yl)-6H-imidazo[1,5-a]pyrrolo[2,3-e]pyrazin-1-yl)-4-hydroxypyrrolidine-1-carboxamide [Example #6]” gave an IC50 against Syk of 10 to 30 nM.
